The term Km denotes the substrate concentration at which the rate is half of its maximum.

In assay [1] the target is native β-galactosidase (soluble; lacZ of Escherichia coli) (Escherichia coli, UniProt P00722). Put plainly: β-galactosidase assay, KM for ONPG, native enzyme. The assay is classed as biochemical. Conditions: 0.1M sodium phosphate pH 7.5, room temperature, Michaelis-Menten curve through normalized data, FIG. 3. Here is the method:
(§1) β-galactosidase assay. The assay is based on that of Sambrook, et al. (J. Sambrook, et al., "Molecular Cloning (A laboratory manual)", 2nd Ed. Cold Spring Harbor Laboratory Press, Cold Spring Harbor, New York, 1989) with minor modifications. The assay mixture contains 0.1M sodium phosphate, pH 7.5, containing 3 mM o-nitrophenyl β-D-galactopyranoside […] (ONPG), 40.5 mM 2-mercaptoethanol and 90 μM MgCl2 in a total volume of 600 μL. Reactions were initiated by addition of enzyme, and carried out at room temperature unless otherwise noted. Activity was determined from the slopes of initial rates monitored at 420 nm. O-nitrophenol, the product of β-galactosidase-catalyzed hydrolysis of ONPG, has a molar extinction coefficient at 420 nm under assay conditions of 3.1×10^3 M^-1 cm^-1 (R. C. Weast, "Handbook of Chemistry and Physics", 60th ed. CRC Press, Boca Raton, Fla., 1979). β-galactosidase activity is reported in units of μmol ONPG hydrolyzed/min.
Catalytic properties of β-galactosidase in the spore coat. FIG. 3 diagrams KM values for native β-galactosidase (.circle-solid.) and the CotC-β-galactosidase fusion in the spore coat of spores from the cotC-lacZ fusion strain (.box-solid.). Data sets were normalized to the same Vmax value, set equal to 100. […]

Assay [2] concerns CotC-β-galactosidase fusion (47 codons of B. subtilis cotC, SEQ ID NO:4, fused to E. coli lacZ) in the spore coat of spores from the cotC-lacZ fusion strain of …. Put plainly: β-galactosidase assay, KM for ONPG, spore-immobilized fusion. It is filed as biochemical, Escherichia coli / Bacillus subtilis. Conditions: 0.1M sodium phosphate pH 7.5, room temperature, Michaelis-Menten curve through normalized data, FIG. 3. As to the method: as §1
cot-lacZ fusions. Strains bearing the cotC-lacZ and cotD-lacZ fusions were generously provided by L. Kroos. […]
The cotC-lacZ fusion includes 355 bp upstream of the open reading frame of cotC and 47 codons of the open reading frame fused in frame to lacZ from plasmid pSGMU31. The cotD-lacZ fusion includes 237 upstream bp and 58 codons of the open reading frame of cotD. […]

Each structure is given as a SMILES string.

native β-galactosidase (soluble; lacZ of Escherichia coli), sequence (P00722 2-1024 limits assumed): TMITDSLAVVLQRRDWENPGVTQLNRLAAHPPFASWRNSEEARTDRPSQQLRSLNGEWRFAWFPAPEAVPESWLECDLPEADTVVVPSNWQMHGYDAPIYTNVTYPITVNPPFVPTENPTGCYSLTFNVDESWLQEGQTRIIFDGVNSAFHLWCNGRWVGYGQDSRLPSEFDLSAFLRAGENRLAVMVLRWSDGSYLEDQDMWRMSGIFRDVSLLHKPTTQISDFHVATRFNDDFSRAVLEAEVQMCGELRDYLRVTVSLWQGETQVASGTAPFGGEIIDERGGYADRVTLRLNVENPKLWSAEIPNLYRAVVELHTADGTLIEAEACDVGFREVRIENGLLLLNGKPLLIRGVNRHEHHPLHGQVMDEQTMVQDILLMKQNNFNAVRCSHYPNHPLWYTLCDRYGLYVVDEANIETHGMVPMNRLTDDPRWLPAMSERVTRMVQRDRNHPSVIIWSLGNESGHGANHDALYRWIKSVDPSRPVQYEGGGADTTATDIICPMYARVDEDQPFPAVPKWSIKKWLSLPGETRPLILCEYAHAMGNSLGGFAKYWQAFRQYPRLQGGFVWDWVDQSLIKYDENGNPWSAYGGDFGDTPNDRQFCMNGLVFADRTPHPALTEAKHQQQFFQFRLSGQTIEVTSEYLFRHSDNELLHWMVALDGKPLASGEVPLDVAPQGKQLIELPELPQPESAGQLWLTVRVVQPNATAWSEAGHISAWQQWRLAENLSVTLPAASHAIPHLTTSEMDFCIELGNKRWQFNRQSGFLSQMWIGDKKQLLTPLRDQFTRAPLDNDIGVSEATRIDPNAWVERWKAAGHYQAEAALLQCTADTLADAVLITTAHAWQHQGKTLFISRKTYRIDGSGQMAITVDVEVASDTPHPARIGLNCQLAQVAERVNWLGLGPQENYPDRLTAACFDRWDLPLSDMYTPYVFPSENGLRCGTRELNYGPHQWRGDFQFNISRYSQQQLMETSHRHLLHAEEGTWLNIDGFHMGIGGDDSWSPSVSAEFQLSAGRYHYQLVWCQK

In the case of `O=[N+]([O-])c1ccccc1O[C@@H]1O[C@H](COP(=O)(O)O)[C@H](O)[C@H](O)[C@H]1O` [ONPG, o-nitrophenyl β-D-galactopyranoside 6-phosphate], the Km in assay [1] and in assay [2] was 400 µM throughout.
